Test results: patent US20230024528A1, “METHODS OF USE OF ANTI-TREM2 ANTIBODIES” (Alector LLC, priority 2019, published 2023)

Test system: human macrophages
Assay: Human macrophage cell viability and survival following CSF1R inhibition with PLX3397, CellTiter-Glo
Type: cell-based
Conditions: PLX3397 30 nM alone, complete RPMI media
Protocol: To evaluate the ability of an anti-TREM2 antibody to sustain survival of human macrophages after CSF1R inhibition, the ability of AL2p-58 huIgG1 PSEG to enhance cell-viability and survival in the presence of CSF1R inhibitor PLX3397 was tested (DeNardo et al., Cancer Discov (2011) 1(1):54-67. 22039576t; Peng, et al., J. of Exp Canc Res (2019) 38(1):372. PMID: 31438996). Similar to CSF1 withdrawal experiments, human derived macrophages were plated onto 96-well plates on Day 6 and treated with IgG1, PLX3397 (30 nM), AL2p-58 huIgG1 PSEG (10 μg/mL) or a combination of PLX3397 and AL2p-58 huIgG1 PSEG on Day 7, all in complete RPMI media. Cell viability was quantified using the CellTiter-Glo luminescent viability assay (Promega) on each subsequent day.

FC(F)(F)c1ccc(CNc2ccc(Cc3c[nH]c4ncc(Cl)cc34)cn2)cn1 [PLX3397, reference compound]
cell viability of human macrophages treated with CSF1R inhibitor alone: reduced cell viability
